Drawing on US4208531A, “Synthetic aminoglycosides” (priority 1976, dated 1980), this text covers MIC for two molecules.

What all share (test): MIC, Steers agar-dilution method, Mueller-Hinton
Common to all, as to type: cell-based

Assay [1] concerns Proteus rettgeri. The settings on record: Providencia rettgeri. The text has this: (§1) Illustrated below is a table showing the minimal inhibitory concentrations (MIC's) of Kanamycin A together with those of one of the trisaccharides synthesized (Example I) against a variety of Gram-positive and Gram-negative bacteria as obtained by the Steers agar-dilution method with Mueller-Hinton agar medium.
(§2) In vitro activity of Kanamycin A and compound (Example LI). MIC's in
(§3) MuellerHinton broth pH 7.2.

Assay [2] concerns Escherichia coli R 1513. As to conditions: R1513, MuellerHinton broth pH 7.2.
From the text: as §1, §2, §3

In assay [3] the test system is Micrococcus pyogenes aureus 6539 P. The settings on record: Staphylococcus aureus, AUREUS6539P.
From the text: as §1, §2, §3

In assay [4] the test system is Pseudomonas aeruginosa I.A.
From the text: as §1, §2, §3

The test system of assay [5] is Pseudomonas aeruginosa D 15.
From the text: as §1, §2, §3

In assay [6] the test system is Pseudomonas aeruginosa s.p.
From the text: as §1, §2, §3

In assay [7] the test system is Proteus morganii. The settings on record: Morganella morganii.
From the text: as §1, §2, §3

Assay [8] concerns Proteus mirabilis.
From the text: as §1, §2, §3

Assay [9] concerns Salmonella sui-pestifer.
From the text: as §1, §2, §3

Assay [10] deals with Salmonella tiphymurium.
From the text: as §1, §2, §3

Assay [11] has as its system Staphylococcus pyogenes Smith A. The settings on record: Staphylococcus aureus.
From the text: as §1, §2, §3

Converted amounts (≈) assume the structure as drawn. Where two headings read alike, the source gives them in different places.

Usually MIC stands for the least concentration at which growth counts as inhibited. Regarding `NCC1OC(OC2CCC(OC3C(N)CC(N)C(O)C3O)OC2CN)CCC1O` (stereo not drawn) [Example LI, 4-O-[4-O-(6-amino-2,3,6-trideoxy-α-O-erythro-hexopyranosyl)-6-amino-2,3,6-trideoxy-αO-erythro-hexopyranosyl]-2-deoxystreptamine disulphate], the MIC in assay [1] (Proteus rettgeri, MuellerHinton broth pH 7.2, read-out: MIC) stood at 0.2 µg/mL; in assay [2] it was 32 µg/mL; in assay [3] (Micrococcus pyogenes aureus 6539 P, MuellerHinton broth pH 7.2, read-out: MIC) it was 0.4 µg/mL; in assay [4] (Pseudomonas aeruginosa I.A., MuellerHinton broth pH 7.2, read-out: MIC) it was 32 µg/mL; in assay [5] (D15, Pseudomonas aeruginosa D 15, MuellerHinton broth pH 7.2, read-out: MIC) it was 8 µg/mL; in assay [6] (Pseudomonas aeruginosa s.p., MuellerHinton broth pH 7.2, read-out: MIC), 16 µg/mL. Besides, the MIC amounted to 0.2 µg/mL in assay [7] (Proteus morganii, MuellerHinton broth pH 7.2, read-out: MIC); 0.4 µg/mL in [8] (MuellerHinton broth pH 7.2, read-out: MIC); 32 µg/mL in assay [9] (Salmonella sui-pestifer, MuellerHinton broth pH 7.2, read-out: MIC); 32 µg/mL in assay [10] (Salmonella tiphymurium, MuellerHinton broth pH 7.2, read-out: MIC); 0.4 µg/mL in assay [11] (Staphylococcus pyogenes Smith A, MuellerHinton broth pH 7.2, read-out: MIC).
Turning to `NCC1OC(OC2C(N)CC(N)C(OC3OC(CO)C(O)C(N)C3O)C2O)C(O)C(O)C1O` (stereo not shown) [Kanamycin A], the MIC in [1] (pH 7.2) worked out at 0.4 µg/mL (≈ 0.826 µM); in [2] it was 100 µg/mL (≈ 206 µM); in assay [3] (pH 7.2), 0.8 µg/mL (≈ 1.65 µM); in [4] (Pseudomonas aeruginosa, pH 7.2) it was 100 µg/mL (≈ 206 µM); in assay [5] (Pseudomonas aeruginosa, D15, pH 7.2) it was 25 µg/mL (≈ 51.6 µM); in assay [6] (Pseudomonas aeruginosa, pH 7.2), 100 µg/mL (≈ 206 µM). The MIC was 0.8 µg/mL (≈ 1.65 µM) in assay [7] (pH 7.2); 2 µg/mL (≈ 4.13 µM) in assay [8] (pH 7.2); 32 µg/mL (≈ 66 µM) in assay [9] (Salmonella, pH 7.2); 100 µg/mL (≈ 206 µM) in assay [10] (Salmonella, pH 7.2); 0.8 µg/mL (≈ 1.65 µM) in assay [11] (pH 7.2).
